{
  "source": "patent US20240082218A1",
  "about": "“PHARMACEUTICAL COMBINATIONS COMPRISING A KRAS G12C INHIBITOR AND USES OF A KRAS G12C INHIBITOR FOR THE TREATMENT OF CANCERS” (priority 2020, published 2024)",
  "key": {"[1]": {"assay": "4-week toxicity study", "type": "in vivo", "conditions": "rat"}, "[2]": {"tested_on": "HCC44 xenograft", "assay": "Anti-tumor activity in HCC44 xenografts", "type": "in vivo, mice", "conditions": "10, 30 and 100 mg/kg oral daily"}, "[3]": {"tested_on": "KRAS G12C-mutated colorectal cancer PDX models", "assay": "KRAS G12C-mutated patient-derived xenograft (PDX) models of human colorectal cancer", "type": "in vivo, mice", "conditions": "oral; Compound A 100 mg/kg daily alone or with TNO155 10 mg/kg twice daily; one animal per PDX model", "protocol": "Female nude mice were implanted subcutaneously with tumor fragments from each PDX model. Individual mice were assigned to treatment groups for dosing once their tumor volume reached 200-250 mm^3. One animal per PDX model was assigned to each treatment arm. […] The end of study per model was defined as minimum of 28 days treatment, or duration for untreated tumor to reach 1500 mm^3, or duration for two doublings of untreated tumor, whichever was slower. Tumor volumes were recorded and are represented as % tumor volume change f SEM for each group."}, "[4]": {"assay": "Oral exposure and tolerability in rat"}, "[5]": {"assay": "Blood pharmacokinetics", "conditions": "in vivo"}, "[6]": {"assay": "Oral exposure and tolerability in dog"}, "[7]": {"tested_on": "MEK Q56P mutated cell lines", "assay": "pERK 6 h cellular assay", "type": "cell-based", "conditions": "Hec50, 6 h, read-out: pERK 6 h EC50 MEK^Q56P"}, "[8]": {"tested_on": "Lu99 KRAS G12C lung carcinoma xenograft", "assay": "Anti-tumor efficacy in Lu99 KRAS G12C lung carcinoma xenografts", "type": "in vivo, mice"}, "[9]": {"tested_on": "H358 cancer cells", "assay": "Antiproliferation in H358 cancer cells", "type": "cell-based", "conditions": "Homo sapiens, NCI-H358"}, "[10]": {"tested_on": "NCI-H2030 xenograft", "assay": "Anti-tumor activity in NCI-H2030 xenografts", "type": "in vivo, mice", "conditions": "10, 30 and 100 mg/kg oral daily"}, "[11]": {"assay": "Oral exposure and tolerability in mouse"}, "[12]": {"target": "T1, KRAS G12C_Y96D (GDP) (Homo sapiens, UniProt P01116, G12C/Y96D)", "T1 construct": "the cDNA encoding KRAS, NRAS, and HRAS comprised aa 1-169; made in house; host or cells: E. coli BL21(DE3)", "T1 sequence (P01116 other isoform, or with tags, fused parts or gaps G12C/Y96D)": "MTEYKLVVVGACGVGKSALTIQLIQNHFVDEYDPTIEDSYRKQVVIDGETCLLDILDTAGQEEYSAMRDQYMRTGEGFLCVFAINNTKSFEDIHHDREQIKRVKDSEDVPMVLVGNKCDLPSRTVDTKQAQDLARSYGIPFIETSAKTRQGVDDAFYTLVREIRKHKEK", "assay": "Covalent rate constants by RapidFire MS", "type": "binding", "conditions": "n=3", "protocol": "(§1) The E. coli expression constructs used in this study were based on the pET system and generated using standard molecular cloning techniques. […] Point mutations were introduced with the QuikChange Lightning Site-Directed Mutagenesis kit (Agilent). All final expression constructs were sequence verified by Sanger sequencing.\n(§2) Cell pellets were resuspended in buffer A (20 mM Tris, 500 mM NaCl, 5 mM imidazole, 2 mM TCEP, 10% glycerol, pH 8.0) supplemented with Turbonuclease (Merck) and cOmplete protease inhibitor tablets (Roche). The cells were lysed by three passages through a homogenizer (Avestin) at 800-1000 bar and the lysate clarified by centrifugation at 40000 g for 40 min. The lysate was loaded onto a HisTrap HP 5 ml column (Cytiva) mounted on an ÅKTA Pure 25 chromatography system (Cytiva). Contaminating proteins were washed away with buffer A and bound protein was eluted with a linear gradient to buffer B (buffer A supplemented with 200 mM imidazole). During dialysis O/N the N-terminal His affinity purification tags on the non-tagged and avi-tagged proteins were cleaved off by TEV or HRV3C protease, respectively. The protein solution was re-loaded onto a HisTrap column and the flow through containing the target protein collected. Guanosine 5′-diphosphate sodium salt (GDP, Sigma) or GppNHp-Tetralithium salt (Jena Bioscience) was added to a 24-32× molar excess over protein. […] After 1 hour at room temperature the buffer was exchanged on a PD-10 desalting column (Cytiva) against 40 mM Tris, 200 mM (NH4)2SO4, 0.1 mM ZnCl2, pH 8.0. […] 40 U Shrimp Alkaline Phosphatase (New England Biolabs) was added to GppNHp containing samples only. The sample was then incubated for 1 hour at 5° C. Finally, MgCl2 was added to a concentration of about 30 mM.\n(§3) Reactions were stopped at different time points by addition of formic acid to 1%. […] In parallel, compound solubility was assessed by nephelometry and compound concentrations resulting in measurable turbidity were excluded from curve fitting. […]"}, "[13]": {"target": "T2, KRAS G12C_Y96C (GDP) (Homo sapiens, UniProt P01116, G12C/Y96C)", "T2 construct": "the cDNA encoding KRAS, NRAS, and HRAS comprised aa 1-169; made in house; host or cells: E. coli BL21(DE3)", "T2 sequence (P01116 other isoform, or with tags, fused parts or gaps G12C/Y96C)": "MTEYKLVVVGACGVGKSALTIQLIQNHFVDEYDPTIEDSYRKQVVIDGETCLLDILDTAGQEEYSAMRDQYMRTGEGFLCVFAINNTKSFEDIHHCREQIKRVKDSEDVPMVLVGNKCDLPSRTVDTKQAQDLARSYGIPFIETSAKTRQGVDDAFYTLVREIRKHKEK", "assay": "Covalent rate constants by RapidFire MS", "type": "binding", "conditions": "n=2", "protocol": "as §1, §2, §3"}, "[14]": {"target": "T3, KRAS G12C_H95Q (GDP) (Homo sapiens, UniProt P01116, G12C/H95Q)", "T3 construct": "the cDNA encoding KRAS, NRAS, and HRAS comprised aa 1-169; made in house; host or cells: E. coli BL21(DE3)", "T3 sequence (P01116 other isoform, or with tags, fused parts or gaps G12C/H95Q)": "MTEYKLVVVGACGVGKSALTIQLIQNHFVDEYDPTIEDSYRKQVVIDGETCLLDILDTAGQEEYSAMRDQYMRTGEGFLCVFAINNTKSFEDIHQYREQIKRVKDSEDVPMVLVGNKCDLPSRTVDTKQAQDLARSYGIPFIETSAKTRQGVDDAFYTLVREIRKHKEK", "assay": "Covalent rate constants by RapidFire MS", "type": "binding", "conditions": "n=2", "protocol": "as §1, §2, §3"}, "[15]": {"tested_on": "KRAS G12C-mutated cell lines", "assay": "Proliferation cellular assay", "type": "cell-based"}, "[16]": {"tested_on": "NCI-H2122 (KRASG12C lung) xenograft", "type": "in vivo, mice"}},
  "note": "Entries after “also recorded” stand apart in the source; their conditions may differ. Read-outs that look alike come from different tables or passages of the source. Marks after values point to notes of the source that are not given here.",
  "data": [
    {"compound": "C=CC(=O)N1CC2(CC(n3nc(-c4ccc5c(cnn5C)c4)c(-c4c(Cl)c(C)cc5[nH]ncc45)c3C)C2)C1", "note": "(single isomer, unassigned) [Compound A, 1-{6-[(4M)-4-(5-Chloro-6-methyl-1H-indazol-4-yl)-5-methyl-3-(1-methyl-1H-indazol-5-yl)-1H-pyrazol-1-yl]-2-azaspiro[3.3]heptan-2-yl}prop-2-en-1-one]", "values": [
      {"measurement": "tolerability in 4-week toxicity study", "setting": "[1]", "value": "well tolerated"},
      {"measurement": "pattern of maximal response", "setting": "[2]", "value": "stasis-like"},
      {"measurement": "tumor response in CRC PDX models", "setting": "[3]", "value": "regression of one PDX model and to a slight to moderate tumor growth delay in some PDX models"},
      {"measurement": "oral bioavailability", "setting": "[4]", "value": "orally bioavailable"},
      {"measurement": "tolerability", "setting": "[4]", "value": "well-tolerated"},
      {"measurement": "half-life", "setting": "[5]", "value": "~2", "unit": "h"},
      {"measurement": "oral bioavailability", "setting": "[6]", "value": "orally bioavailable"},
      {"measurement": "tolerability", "setting": "[6]", "value": "well-tolerated"},
      {"measurement": "EC50", "setting": "[7]", "value": "> 10000", "unit": "nM"},
      {"measurement": "pattern of maximal response", "setting": "[8]; LU99, 10, 30 and 100 mg/kg oral daily", "value": "regression"},
      {"measurement": "anti-tumor response (Example 7)", "setting": "[8]; Lu99, oral, Compound A 100 mg/kg once daily, TNO155 10 mg/kg twice daily continuous, alone or in combination", "value": "tumor regression for approximately two weeks"},
      {"measurement": "anti-tumor response (Example 6)", "setting": "[8]; Lu99, oral, Compound A 100 mg/kg once daily, TNO155 10 mg/kg twice daily, alone or in combination, up to 28 days", "value": "tumor regression for three weeks"},
      {"measurement": "GI50", "setting": "[9]", "value": 30, "unit": "nM"},
      {"measurement": "pattern of maximal response", "setting": "[10]", "value": "moderate tumor growth inhibition"},
      {"measurement": "oral bioavailability", "setting": "[11]", "value": "orally bioavailable"},
      {"measurement": "tolerability", "setting": "[11]", "value": "well-tolerated"},
      {"measurement": "Second order rate constant (Kinact/KI)", "setting": "[12]", "value": 90, "unit": "M⁻¹ s⁻¹"},
      {"measurement": "Second order rate constant (Kinact/KI)", "setting": "[13]", "value": 650, "unit": "M⁻¹ s⁻¹"},
      {"measurement": "Second order rate constant (Kinact/KI)", "setting": "[14]", "value": 9500, "unit": "M⁻¹ s⁻¹"},
      {"measurement": "GI50", "setting": "[15]", "value": 30, "unit": "nM"},
      {"measurement": "anti-tumor activity", "setting": "[16]; 10 mg/kg daily oral", "value": "weak tumor-growth inhibition"},
      {"measurement": "anti-tumor activity", "setting": "[16]; 30 mg/kg daily oral", "value": "moderate tumor-growth inhibition; also recorded: slightly less than tumor stasis"},
      {"measurement": "anti-tumor activity", "setting": "[16]; 50 mg/kg twice daily oral", "value": "approximate tumor stasis"},
      {"measurement": "anti-tumor activity", "setting": "[16]; 100 mg/kg daily oral", "value": "approximate tumor stasis"},
      {"measurement": "anti-tumor activity", "setting": "[16]; 100 mg/kg daily oral, listed as JDQ443", "value": "stasis"},
      {"measurement": "pattern of maximal response", "setting": "[16]; 10, 30 and 100 mg/kg oral daily", "value": "stasis-like"}
    ]}
  ]
}
